Assay results reported in publication PMC9680877 (ACS Chemical Biology, 2022).

Tests used:
Assay type in all cases: binding
TRIM11 = target: T1, TRIM11 (Homo sapiens, UniProt Q96F44); assay: dose-response competition pulldown with MS readout
T1 sequence (Q96F44 1-468): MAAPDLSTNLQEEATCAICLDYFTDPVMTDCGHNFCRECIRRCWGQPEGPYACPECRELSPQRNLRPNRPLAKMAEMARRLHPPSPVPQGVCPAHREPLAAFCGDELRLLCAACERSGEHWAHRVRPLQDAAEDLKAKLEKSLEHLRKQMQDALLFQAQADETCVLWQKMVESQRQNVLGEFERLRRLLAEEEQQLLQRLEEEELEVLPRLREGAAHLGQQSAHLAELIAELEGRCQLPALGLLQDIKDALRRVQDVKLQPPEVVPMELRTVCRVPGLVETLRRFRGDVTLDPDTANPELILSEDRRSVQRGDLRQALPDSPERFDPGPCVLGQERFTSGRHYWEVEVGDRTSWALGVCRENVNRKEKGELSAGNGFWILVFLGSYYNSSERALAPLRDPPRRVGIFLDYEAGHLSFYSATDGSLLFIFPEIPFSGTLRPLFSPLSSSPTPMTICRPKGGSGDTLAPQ

MED15 = target: T2, MED15 (Homo sapiens, UniProt Q96RN5); assay: dose-response competition pulldown with MS readout
T2 sequence (Q96RN5 1-788): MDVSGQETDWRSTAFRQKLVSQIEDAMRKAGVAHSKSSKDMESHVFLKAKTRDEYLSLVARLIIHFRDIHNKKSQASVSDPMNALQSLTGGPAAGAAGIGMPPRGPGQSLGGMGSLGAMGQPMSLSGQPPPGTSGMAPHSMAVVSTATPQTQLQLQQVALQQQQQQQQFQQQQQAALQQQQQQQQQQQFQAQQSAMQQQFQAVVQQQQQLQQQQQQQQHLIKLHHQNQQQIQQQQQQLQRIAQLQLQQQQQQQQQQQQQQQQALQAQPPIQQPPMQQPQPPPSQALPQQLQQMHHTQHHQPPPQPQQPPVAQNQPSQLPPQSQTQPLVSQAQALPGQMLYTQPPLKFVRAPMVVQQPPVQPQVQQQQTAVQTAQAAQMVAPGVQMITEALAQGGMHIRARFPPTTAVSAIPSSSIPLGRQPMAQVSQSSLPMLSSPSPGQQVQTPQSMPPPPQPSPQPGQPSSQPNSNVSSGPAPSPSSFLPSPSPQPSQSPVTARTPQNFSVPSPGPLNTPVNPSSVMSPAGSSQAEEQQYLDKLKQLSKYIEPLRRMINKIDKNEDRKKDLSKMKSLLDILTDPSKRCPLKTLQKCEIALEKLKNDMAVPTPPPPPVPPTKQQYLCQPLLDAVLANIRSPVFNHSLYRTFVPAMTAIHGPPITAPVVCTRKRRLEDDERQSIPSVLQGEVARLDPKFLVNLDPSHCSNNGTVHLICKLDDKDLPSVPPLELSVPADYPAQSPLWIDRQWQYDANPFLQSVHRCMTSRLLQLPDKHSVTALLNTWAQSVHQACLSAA

GATA1 = GATA1 (Homo sapiens, UniProt P15976); assay: dose-response competition pulldown with MS readout
GATA1, sequence (P15976 whole entry): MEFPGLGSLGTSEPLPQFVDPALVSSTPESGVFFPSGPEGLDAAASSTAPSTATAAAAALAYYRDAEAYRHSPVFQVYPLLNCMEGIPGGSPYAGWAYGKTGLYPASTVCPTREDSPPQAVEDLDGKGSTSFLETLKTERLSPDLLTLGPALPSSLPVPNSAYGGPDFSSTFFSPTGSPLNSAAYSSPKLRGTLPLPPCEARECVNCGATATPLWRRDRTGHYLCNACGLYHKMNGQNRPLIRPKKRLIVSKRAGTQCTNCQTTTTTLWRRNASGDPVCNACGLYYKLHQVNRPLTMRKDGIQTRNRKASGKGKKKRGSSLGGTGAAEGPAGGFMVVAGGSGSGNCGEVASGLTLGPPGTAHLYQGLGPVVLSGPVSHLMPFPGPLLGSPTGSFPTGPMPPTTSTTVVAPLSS

UBAP2L = target: T3, UBAP2L (Homo sapiens, UniProt Q14157); assay: dose-response competition pulldown with MS readout
T3 sequence (Q14157 1-1087): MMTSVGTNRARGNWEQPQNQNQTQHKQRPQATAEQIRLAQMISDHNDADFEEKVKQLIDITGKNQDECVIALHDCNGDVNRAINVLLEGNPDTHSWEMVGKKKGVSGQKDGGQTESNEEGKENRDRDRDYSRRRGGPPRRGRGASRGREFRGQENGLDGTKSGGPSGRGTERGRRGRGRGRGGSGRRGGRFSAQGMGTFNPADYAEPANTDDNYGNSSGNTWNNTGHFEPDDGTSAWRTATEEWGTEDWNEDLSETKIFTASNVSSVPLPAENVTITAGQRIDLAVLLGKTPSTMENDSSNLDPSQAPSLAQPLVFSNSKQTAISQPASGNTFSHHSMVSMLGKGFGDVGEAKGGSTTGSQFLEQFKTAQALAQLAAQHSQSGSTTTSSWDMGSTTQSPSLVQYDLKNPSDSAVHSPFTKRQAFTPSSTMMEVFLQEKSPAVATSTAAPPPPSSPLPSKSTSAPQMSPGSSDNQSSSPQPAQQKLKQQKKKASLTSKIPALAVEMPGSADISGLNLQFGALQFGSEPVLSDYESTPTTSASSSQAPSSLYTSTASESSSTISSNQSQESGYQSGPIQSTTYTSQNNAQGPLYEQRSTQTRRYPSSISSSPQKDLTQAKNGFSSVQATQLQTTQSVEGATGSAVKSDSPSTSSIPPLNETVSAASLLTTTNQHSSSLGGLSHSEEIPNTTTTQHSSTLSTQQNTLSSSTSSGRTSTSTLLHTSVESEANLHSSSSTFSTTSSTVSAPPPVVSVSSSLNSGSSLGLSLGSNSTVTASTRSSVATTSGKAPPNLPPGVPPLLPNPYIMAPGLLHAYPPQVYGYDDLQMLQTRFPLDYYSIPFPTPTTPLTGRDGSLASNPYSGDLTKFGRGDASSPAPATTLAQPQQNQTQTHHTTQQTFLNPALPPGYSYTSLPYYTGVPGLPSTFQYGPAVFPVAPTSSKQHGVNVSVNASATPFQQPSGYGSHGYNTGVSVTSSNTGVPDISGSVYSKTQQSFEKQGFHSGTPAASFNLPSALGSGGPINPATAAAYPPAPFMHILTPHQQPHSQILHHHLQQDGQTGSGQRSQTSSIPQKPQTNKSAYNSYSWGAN

TCF3 = target: T4, TCF3 (Homo sapiens, UniProt P15923); assay: dose-response competition pulldown with MS readout
T4 sequence (P15923 1-654): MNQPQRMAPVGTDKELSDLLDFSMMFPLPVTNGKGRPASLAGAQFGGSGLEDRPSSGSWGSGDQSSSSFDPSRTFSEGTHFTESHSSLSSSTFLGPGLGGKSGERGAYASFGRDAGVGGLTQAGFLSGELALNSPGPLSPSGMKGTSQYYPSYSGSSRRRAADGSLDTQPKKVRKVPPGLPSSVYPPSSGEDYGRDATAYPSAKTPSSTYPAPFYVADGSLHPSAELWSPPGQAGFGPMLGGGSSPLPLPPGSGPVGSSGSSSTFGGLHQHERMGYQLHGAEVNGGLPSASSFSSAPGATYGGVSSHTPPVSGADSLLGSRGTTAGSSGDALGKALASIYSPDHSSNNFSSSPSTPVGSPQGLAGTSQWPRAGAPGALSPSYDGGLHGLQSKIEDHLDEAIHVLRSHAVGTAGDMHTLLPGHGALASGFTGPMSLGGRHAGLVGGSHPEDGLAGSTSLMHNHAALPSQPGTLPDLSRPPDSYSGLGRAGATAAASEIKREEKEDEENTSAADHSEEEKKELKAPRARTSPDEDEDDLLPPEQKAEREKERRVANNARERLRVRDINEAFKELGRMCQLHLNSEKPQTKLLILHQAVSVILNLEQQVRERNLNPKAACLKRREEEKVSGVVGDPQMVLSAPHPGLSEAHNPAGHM

GATA2 = target: T5, GATA2 (Homo sapiens, UniProt P23769); assay: dose-response competition pulldown with MS readout
T5 sequence (P23769 1-480): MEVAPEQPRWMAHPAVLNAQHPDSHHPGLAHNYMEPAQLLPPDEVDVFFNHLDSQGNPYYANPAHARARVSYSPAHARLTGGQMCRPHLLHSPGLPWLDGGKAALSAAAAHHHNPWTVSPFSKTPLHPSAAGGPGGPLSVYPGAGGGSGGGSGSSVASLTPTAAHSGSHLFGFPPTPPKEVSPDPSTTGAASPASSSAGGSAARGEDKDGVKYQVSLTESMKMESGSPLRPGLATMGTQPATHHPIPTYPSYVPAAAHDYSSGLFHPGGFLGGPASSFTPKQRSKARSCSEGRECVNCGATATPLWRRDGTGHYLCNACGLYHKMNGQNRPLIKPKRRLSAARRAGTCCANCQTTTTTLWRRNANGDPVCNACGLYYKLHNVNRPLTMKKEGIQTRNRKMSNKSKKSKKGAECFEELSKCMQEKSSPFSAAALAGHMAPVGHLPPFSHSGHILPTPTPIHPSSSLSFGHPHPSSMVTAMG

OTUD4 = target: T6, OTUD4 (Homo sapiens, UniProt Q01804); assay: dose-response competition pulldown with MS readout
T6 sequence (Q01804 1-1114): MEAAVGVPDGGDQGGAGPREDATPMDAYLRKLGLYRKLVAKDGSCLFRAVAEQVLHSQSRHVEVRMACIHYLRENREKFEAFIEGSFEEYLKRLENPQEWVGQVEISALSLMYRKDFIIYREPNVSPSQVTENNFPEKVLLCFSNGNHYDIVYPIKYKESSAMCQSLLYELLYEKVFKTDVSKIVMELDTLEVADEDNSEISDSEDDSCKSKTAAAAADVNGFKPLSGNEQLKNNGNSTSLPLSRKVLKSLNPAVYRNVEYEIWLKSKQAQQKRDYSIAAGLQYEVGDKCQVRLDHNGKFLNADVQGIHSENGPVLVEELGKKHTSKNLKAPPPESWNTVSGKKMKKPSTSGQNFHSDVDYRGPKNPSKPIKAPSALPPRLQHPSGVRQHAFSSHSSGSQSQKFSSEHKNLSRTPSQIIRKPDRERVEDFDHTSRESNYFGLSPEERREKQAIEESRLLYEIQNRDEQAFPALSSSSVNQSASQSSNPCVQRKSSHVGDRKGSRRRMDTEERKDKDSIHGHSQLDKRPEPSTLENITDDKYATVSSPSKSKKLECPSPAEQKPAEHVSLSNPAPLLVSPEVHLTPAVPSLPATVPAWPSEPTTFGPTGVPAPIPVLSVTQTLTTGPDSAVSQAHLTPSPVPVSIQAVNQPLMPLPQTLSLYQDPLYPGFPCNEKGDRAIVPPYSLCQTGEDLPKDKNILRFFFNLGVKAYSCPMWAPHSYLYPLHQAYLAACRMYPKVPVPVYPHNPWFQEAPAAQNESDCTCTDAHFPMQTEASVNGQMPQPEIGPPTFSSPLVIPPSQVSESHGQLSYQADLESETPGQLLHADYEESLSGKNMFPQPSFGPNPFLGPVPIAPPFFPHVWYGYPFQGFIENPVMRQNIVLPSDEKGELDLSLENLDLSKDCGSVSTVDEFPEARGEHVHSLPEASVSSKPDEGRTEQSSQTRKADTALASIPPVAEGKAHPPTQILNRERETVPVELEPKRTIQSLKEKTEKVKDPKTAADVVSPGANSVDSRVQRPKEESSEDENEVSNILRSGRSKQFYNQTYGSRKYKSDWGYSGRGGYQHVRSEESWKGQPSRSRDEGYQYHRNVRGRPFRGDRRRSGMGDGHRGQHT

CNOT1 = CNOT1 (Homo sapiens, UniProt A5YKK6); assay: dose-response competition pulldown with MS readout; settings: SW-620 lysate; free FAD vs photo-immobilized FAD beads
CNOT1, sequence (A5YKK6 whole entry): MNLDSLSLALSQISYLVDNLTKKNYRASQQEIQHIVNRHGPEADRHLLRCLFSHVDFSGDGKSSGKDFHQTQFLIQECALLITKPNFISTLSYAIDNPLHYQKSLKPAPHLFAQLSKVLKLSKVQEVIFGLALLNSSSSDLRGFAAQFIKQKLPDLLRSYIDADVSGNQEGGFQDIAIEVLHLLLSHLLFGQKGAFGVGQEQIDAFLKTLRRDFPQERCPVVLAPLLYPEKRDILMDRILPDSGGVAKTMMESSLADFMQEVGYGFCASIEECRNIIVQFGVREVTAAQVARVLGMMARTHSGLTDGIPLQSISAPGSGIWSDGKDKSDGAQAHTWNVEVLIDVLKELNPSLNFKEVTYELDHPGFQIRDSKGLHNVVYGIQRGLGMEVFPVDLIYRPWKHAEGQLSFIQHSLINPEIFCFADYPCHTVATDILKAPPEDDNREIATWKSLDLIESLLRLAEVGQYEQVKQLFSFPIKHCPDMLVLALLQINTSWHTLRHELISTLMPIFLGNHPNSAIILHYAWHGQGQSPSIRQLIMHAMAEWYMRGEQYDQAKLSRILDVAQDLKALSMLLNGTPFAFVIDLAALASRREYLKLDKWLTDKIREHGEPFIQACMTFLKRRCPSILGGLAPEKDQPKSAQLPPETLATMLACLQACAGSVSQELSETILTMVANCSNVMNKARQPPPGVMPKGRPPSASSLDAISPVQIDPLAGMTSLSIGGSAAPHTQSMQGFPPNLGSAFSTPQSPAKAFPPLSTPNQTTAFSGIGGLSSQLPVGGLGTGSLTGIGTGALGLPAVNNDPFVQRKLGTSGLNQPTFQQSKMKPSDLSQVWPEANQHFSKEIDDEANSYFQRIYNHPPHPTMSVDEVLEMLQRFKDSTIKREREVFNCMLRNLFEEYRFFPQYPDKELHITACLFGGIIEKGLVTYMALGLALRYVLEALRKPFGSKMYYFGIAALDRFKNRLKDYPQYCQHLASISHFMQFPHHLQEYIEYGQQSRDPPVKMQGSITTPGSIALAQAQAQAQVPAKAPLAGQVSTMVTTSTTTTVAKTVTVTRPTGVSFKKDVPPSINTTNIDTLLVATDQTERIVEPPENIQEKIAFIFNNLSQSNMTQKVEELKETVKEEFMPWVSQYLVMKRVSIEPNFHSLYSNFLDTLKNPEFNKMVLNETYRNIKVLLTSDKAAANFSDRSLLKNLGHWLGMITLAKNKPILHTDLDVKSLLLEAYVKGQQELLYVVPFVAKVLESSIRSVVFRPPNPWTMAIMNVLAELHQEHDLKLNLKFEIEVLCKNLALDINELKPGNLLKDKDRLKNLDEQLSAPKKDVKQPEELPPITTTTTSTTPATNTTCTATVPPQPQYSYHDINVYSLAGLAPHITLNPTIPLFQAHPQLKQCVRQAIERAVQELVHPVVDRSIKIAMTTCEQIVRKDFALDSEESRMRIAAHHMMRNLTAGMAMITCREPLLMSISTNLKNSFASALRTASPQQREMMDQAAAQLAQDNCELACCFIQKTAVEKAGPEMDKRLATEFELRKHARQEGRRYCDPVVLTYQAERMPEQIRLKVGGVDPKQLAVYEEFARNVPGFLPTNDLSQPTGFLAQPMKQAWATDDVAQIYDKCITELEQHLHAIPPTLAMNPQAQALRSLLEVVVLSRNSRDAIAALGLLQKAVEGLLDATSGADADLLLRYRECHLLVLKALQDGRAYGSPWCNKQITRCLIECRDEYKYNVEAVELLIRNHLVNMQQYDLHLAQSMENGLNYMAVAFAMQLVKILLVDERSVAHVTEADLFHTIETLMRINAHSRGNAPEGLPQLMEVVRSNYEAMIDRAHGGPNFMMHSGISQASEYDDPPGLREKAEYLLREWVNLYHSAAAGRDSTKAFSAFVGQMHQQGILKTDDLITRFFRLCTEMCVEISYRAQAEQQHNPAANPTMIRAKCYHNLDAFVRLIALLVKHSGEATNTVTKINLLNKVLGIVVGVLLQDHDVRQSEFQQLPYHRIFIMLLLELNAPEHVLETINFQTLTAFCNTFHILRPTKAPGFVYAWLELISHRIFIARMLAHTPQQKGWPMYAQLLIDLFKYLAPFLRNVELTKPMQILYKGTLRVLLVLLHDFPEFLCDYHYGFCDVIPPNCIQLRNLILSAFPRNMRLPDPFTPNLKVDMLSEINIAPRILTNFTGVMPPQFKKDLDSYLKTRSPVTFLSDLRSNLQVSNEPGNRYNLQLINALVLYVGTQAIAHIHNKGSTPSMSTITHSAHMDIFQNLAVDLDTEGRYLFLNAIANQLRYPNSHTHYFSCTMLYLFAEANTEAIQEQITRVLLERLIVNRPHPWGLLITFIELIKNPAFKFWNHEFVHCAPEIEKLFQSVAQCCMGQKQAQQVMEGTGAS

kinases = assay: Kinobeads profiling; settings: latest version of Kinobeads, without immobilized staurosporine

| Compound | Kd (TRIM11) [nM] | Kd (MED15) [nM] | Kd (GATA1) [nM] | Kd (UBAP2L) [nM] | Kd (TCF3) [nM] | Kd (GATA2) [nM] | Kd (OTUD4) [nM] | CNOT1 bound by the matrix but not competed up to (CNOT1) [µM] | number of kinase targets with affinities below 10 μM (kinases) |
| --- | --- | --- | --- | --- | --- | --- | --- | --- | --- |
| Cc1cc2nc3c(=O)[nH]c(=O)nc-3n(C[C@H](O)[C@H](O)[C@H](O)COP(=O)(O)OP(=O)(O)OC[C@H]3O[C@@H](n4cnc5c(N)ncnc54)[C@H](O)[C@@H]3O)c2cc1C [FAD, flavin adenine dinucleotide] | 186 | 14 | 20 | 36 | 78 | 7 | 11 | > 100 |  |
| CN[C@@H]1C[C@H]2O[C@@](C)([C@@H]1OC)n1c3ccccc3c3c4c(c5c6ccccc6n2c5c31)C(=O)NC4 [Staurosporine] |  |  |  |  |  |  |  |  | 94 |
